According to patent US10907099B2, “Compound, composition, cured object, optically anisotropic body, and reflective film” (FUJIFILM Corporation, priority 2016, dated 2021):

Experiments:
[1] = Measurement of light fastness (residual rate after ultraviolet irradiation); type: physicochemical; conditions: for Evaluation of light fastness: 5 mg in acetonitrile 20 ml, 1 cm quartz cell, ultraviolet light 3 J/cm^2, residual rate by liquid chromatography; for light fastness (in words): based on the results in Table 1
Description: Each (5 mg) of the compounds was dissolved in acetonitrile (20 ml), sealed in a 1 cm quartz cell, and the quartz cell was irradiated with ultraviolet light under a condition of 3 J/cm^2 using EXECURE 3000-W manufactured by HOYA-SCHOTT CORPORATION, so that a residual rate of each compound was measured. Amounts (masses) of each compound before and after light irradiation were calculated using liquid chromatography. In the table, “A” represents a residual rate of equal to or greater than 80%, “B” represents a residual rate of equal to or greater than 50% and less than 80%, and “C” represents a residual rate of less than 50%.

[2] = Solubility measurement in ethyl methyl ketone; type: physicochemical; conditions: concentration (% by mass) of compound completely dissolved in ethyl methyl ketone
Description: Ethyl methyl ketone was added dropwise to each of the compounds, and a concentration (% by mass) of the compound in the obtained ethyl methyl ketone solution in a case where the compound was completely dissolved in the solution was measured as “solubility”. It is intended that a higher numerical value of solubility indicates excellent solubility in ethyl methyl ketone.

Row | SMILES | Evaluation of light fastness [1] | light fastness (in words) [1] | Solubility (MEK) [2] [%]
1 | C=CC(=O)OCCCCCCOc1ccc(C(=O)Oc2ccc(C#Cc3ccc(CCCCCCC)cc3)cc2)cc1 [Comparative Compound b-1, reference compound] | C (residual rate of less than 50%) | does not satisfy the desired requirement for light fastness | –
2 | C=CC(=O)OCCCCOc1ccc(C#Cc2ccc(NC(=O)C(=O)Nc3ccc(C#Cc4ccc(OCCCCOC(=O)C=C)cc4)cc3C(F)(F)F)c(C(F)(F)F)c2)cc1 [Compound a-1] | A (residual rate of equal to or greater than 80%) | excellent in light fastness | 2
3 | C=CC(=O)OCCCCOc1ccc(C#Cc2cc(C)c(NC(=O)C(=O)Nc3ccc(C#Cc4ccc(OCCCCOC(=O)C=C)cc4)cc3C(F)(F)F)c(C)c2)cc1 [Compound a-2] | A (residual rate of equal to or greater than 80%) | excellent in light fastness | 14
